Results as given in US9802901B2, “Antibacterial 2H-indazole derivatives” (priority 2013, dated 2017).
Like-named read-outs stand apart in the source and are kept apart here.

How the values were obtained:
E. coli ATCC25922 = assay: Bacterial growth minimal inhibitory concentration (broth microdilution, CLSI M7-A7); type: cell-based, Escherichia coli; details: Escherichia coli, ATCC25922; cation-adjusted Mueller-Hinton Broth, microdilution; quinolone-sensitive strain; read-out: MIC for E. coli ATCC25922
Outline: (§1)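 Broth microdilution in cation-adjusted Mueller-Hinton Broth per CLSI M7-A7; MICs reported in mg/L. K. pneumoniae A-651 and A. baumannii T6474 are multiply resistant, quinolone-resistant strains; E. coli ATCC25922 and P. aeruginosa ATCC27853 are quinolone-sensitive.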

P. aeruginosa ATCC27853 = assay: as above; type: cell-based, Pseudomonas aeruginosa; details: Pseudomonas aeruginosa, ATCC27853; cation-adjusted Mueller-Hinton Broth, microdilution; quinolone-sensitive strain; read-out: MIC for P. aeruginosa ATCC27853
Outline: as §1

[1] = test system: Acinetobacter baumannii T6474; assay: as above; type: cell-based; details: Acinetobacter baumannii, T6474; cation-adjusted Mueller-Hinton Broth, microdilution; multiply-resistant (quinolone-resistant) strain; read-out: MIC for A. Baumannii T6474
Outline: as §1

K. pneumoniae A-651 = assay: as above; type: cell-based, Klebsiella pneumoniae; details: Klebsiella pneumoniae, A651; cation-adjusted Mueller-Hinton Broth, microdilution; multiply-resistant (quinolone-resistant) strain; read-out: MIC for K. Pneumoniae A-651
Outline: as §1

wild-type E. coli A-1261 = assay: MIC against wild-type E. coli A-1261 with or without alkaline phosphatase or esterase; type: cell-based; details: Escherichia coli
Experimental: Minimal Inhibitory Concentrations (MICs; mg/L) were determined in cation-adjusted Mueller-Hinton Broth by a microdilution method following the description given in “Methods for Dilution Antimicrobial Susceptibility Tests for Bacteria that Grow Aerobically”, Approved standard, 7th ed., Clinical and Laboratory Standards Institute (CLSI) Document M7-A7, Wayne, Pa., USA (2006).
The compounds of Examples 62 and 63 were tested against wild-type E. coli A-1261 in the absence of alkaline phosphatase or esterase, in the presence of an alkaline phosphatase and in the presence of an esterase. The corresponding antibacterial test results are given in Table 2 hereafter (MICs in mg/L).

MIC (E. coli ATCC25922): 2 µg/mL | MIC (P. aeruginosa ATCC27853): 8 µg/mL | MIC [1]: 8 µg/mL | MIC (K. pneumoniae A-651): 4 µg/mL | MIC (wild-type E. coli A-1261; alkaline phosphatase 2 i.U./mL, read-out: MIC for E. coli A-1261 In the presence of an alkaline phosphatase (2 i.U./mL)): 0.5 µg/mL | MIC (wild-type E. coli A-1261; esterase 10 i.U./mL, read-out: MIC for E. coli A-1261 In the presence of an esterase (10 i.U./mL)): 0.063 µg/mL | MIC (wild-type E. coli A-1261; no alkaline phosphatase or esterase, read-out: MIC for E. coli A-1261 In the absence of alkaline phosphatase or esterase): 0.25 µg/mL
SMILES: CN(C)CC(=O)OCC1(c2ccc(C#Cc3ccc4nn(CC[C@](C)(C(=O)NO)S(C)(=O)=O)cc4c3)cc2)CC1.Cl [Example 63, (R)-(1-(4-((2-(4-(hydroxyamino)-3-methyl-3-(methylsulfonyl)-4-oxobutyl)-2H-indazol-5-yl)ethynyl)phenyl)cyclopropyl)methyl dimethylglycinate hydrochloride]
